# PubChem BioAssay (NCI)
#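 Method: 48-hour compound exposure of cells in 96-well plates, five concentrations, linear interpolation of endpoints. Definition used: TGI = concentration required for complete inhibition of growth.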
# Test system: PC-3 prostate
# Test: NCI-60 cell line screen, 48 h
row,SMILES,TGI
1,O=[N+]([O-])c1cccc(-c2csc(NNC3=NC/C(=C/c4ccc5c(c4)OCO5)S3)n2)c1,55.8 µM
2,CC(=O)NC(Cc1ccc(O)cc1)C(=O)O (stereo not given),> 100 µM
3,COCO[C@@H]1C[C@H]2C(=O)Nc3ccccc3C(=O)N2C1,> 100 µM
4,Nc1c2c(nc3ccccc13)-c1ccccc1CC2,14.4 µM
5,CC(=O)O[C@@H]1[C@H](C(C)C)[C@@H](OC(C)=O)C/C(C)=C/CC[C@]2(C)O[C@@H]12,> 100 µM
6,CCOC(=O)CSc1c(C(=O)OCC)c(=O)n(-c2ccccc2)c(=S)n1-c1ccccc1,> 100 µM

# Test system: MDA-N
# Test: NCI-60 cell line screen, 48 h
row,SMILES,TGI
1,CN(C)C(=O)O/N=C1/C(c2c(O)[nH]c3ccccc23)=Nc2ccccc21,> 100 µM
2,O=[N+]([O-])c1cccc(-c2csc(NNC3=NC/C(=C/c4ccc5c(c4)OCO5)S3)n2)c1,> 100 µM
3,CC(=O)NC(Cc1ccc(O)cc1)C(=O)O (stereo not given),> 100 µM
4,COCO[C@@H]1C[C@H]2C(=O)Nc3ccccc3C(=O)N2C1,> 100 µM
5,CN1C(=O)C2CCC(=O)N2c2cccnc21 (stereo not given),> 100 µM
6,Nc1c2c(nc3ccccc13)-c1ccccc1CC2,16 µM
7,CC(=O)O[C@@H]1[C@H](C(C)C)[C@@H](OC(C)=O)C/C(C)=C/CC[C@]2(C)O[C@@H]12,> 100 µM
8,CCOC(=O)CSc1c(C(=O)OCC)c(=O)n(-c2ccccc2)c(=S)n1-c1ccccc1,> 100 µM

# Test system: NCI-H226 lung
# Test: NCI-60 cell line screen, 48 h
row,SMILES,TGI
1,O=[N+]([O-])c1cccc(-c2csc(NNC3=NC/C(=C/c4ccc5c(c4)OCO5)S3)n2)c1,43.3 µM
2,CC(=O)NC(Cc1ccc(O)cc1)C(=O)O (stereo not given),> 100 µM
3,COCO[C@@H]1C[C@H]2C(=O)Nc3ccccc3C(=O)N2C1,> 100 µM
4,CN1C(=O)C2CCC(=O)N2c2cccnc21 (stereo not given),> 100 µM
5,Nc1c2c(nc3ccccc13)-c1ccccc1CC2,31.5 µM
6,CC(=O)O[C@@H]1[C@H](C(C)C)[C@@H](OC(C)=O)C/C(C)=C/CC[C@]2(C)O[C@@H]12,> 100 µM
7,CCOC(=O)CSc1c(C(=O)OCC)c(=O)n(-c2ccccc2)c(=S)n1-c1ccccc1,> 100 µM

# Test system: SK-MEL-5 melanoma
# Test: NCI-60 cell line screen, 48 h
row,SMILES,TGI
1,CN(C)C(=O)O/N=C1/C(c2c(O)[nH]c3ccccc23)=Nc2ccccc21,> 100 µM
2,O=[N+]([O-])c1cccc(-c2csc(NNC3=NC/C(=C/c4ccc5c(c4)OCO5)S3)n2)c1,38.6 µM
3,CC(=O)NC(Cc1ccc(O)cc1)C(=O)O (stereo not given),> 100 µM
4,COCO[C@@H]1C[C@H]2C(=O)Nc3ccccc3C(=O)N2C1,> 100 µM
5,CN1C(=O)C2CCC(=O)N2c2cccnc21 (stereo not given),> 100 µM
6,Nc1c2c(nc3ccccc13)-c1ccccc1CC2,15.3 µM
7,CC(=O)O[C@@H]1[C@H](C(C)C)[C@@H](OC(C)=O)C/C(C)=C/CC[C@]2(C)O[C@@H]12,> 100 µM
8,CCOC(=O)CSc1c(C(=O)OCC)c(=O)n(-c2ccccc2)c(=S)n1-c1ccccc1,> 100 µM

# Test system: T-47D breast
# Test: NCI-60 cell line screen, 48 h
row,SMILES,TGI
1,CN(C)C(=O)O/N=C1/C(c2c(O)[nH]c3ccccc23)=Nc2ccccc21,50.6 µM
2,O=[N+]([O-])c1cccc(-c2csc(NNC3=NC/C(=C/c4ccc5c(c4)OCO5)S3)n2)c1,> 100 µM
3,CC(=O)NC(Cc1ccc(O)cc1)C(=O)O (stereo not given),> 100 µM
4,COCO[C@@H]1C[C@H]2C(=O)Nc3ccccc3C(=O)N2C1,> 100 µM
5,CN1C(=O)C2CCC(=O)N2c2cccnc21 (stereo not given),> 100 µM
6,CC(=O)O[C@@H]1[C@H](C(C)C)[C@@H](OC(C)=O)C/C(C)=C/CC[C@]2(C)O[C@@H]12,> 100 µM
7,CCOC(=O)CSc1c(C(=O)OCC)c(=O)n(-c2ccccc2)c(=S)n1-c1ccccc1,> 100 µM

# Test system: SK-OV-3 ovarian
# Test: NCI-60 cell line screen, 48 h
row,SMILES,TGI
1,CN(C)C(=O)O/N=C1/C(c2c(O)[nH]c3ccccc23)=Nc2ccccc21,48.8 µM
2,O=[N+]([O-])c1cccc(-c2csc(NNC3=NC/C(=C/c4ccc5c(c4)OCO5)S3)n2)c1,79 µM
3,CC(=O)NC(Cc1ccc(O)cc1)C(=O)O (stereo not given),> 100 µM
4,COCO[C@@H]1C[C@H]2C(=O)Nc3ccccc3C(=O)N2C1,> 100 µM
5,CC(=O)O[C@@H]1[C@H](C(C)C)[C@@H](OC(C)=O)C/C(C)=C/CC[C@]2(C)O[C@@H]12,> 100 µM
6,CCOC(=O)CSc1c(C(=O)OCC)c(=O)n(-c2ccccc2)c(=S)n1-c1ccccc1,> 100 µM

# Test system: HCT-15 colon
# Test: NCI-60 cell line screen, 48 h
row,SMILES,TGI
1,CN(C)C(=O)O/N=C1/C(c2c(O)[nH]c3ccccc23)=Nc2ccccc21,> 100 µM
2,O=[N+]([O-])c1cccc(-c2csc(NNC3=NC/C(=C/c4ccc5c(c4)OCO5)S3)n2)c1,> 100 µM
3,CC(=O)NC(Cc1ccc(O)cc1)C(=O)O (stereo not given),> 100 µM
4,COCO[C@@H]1C[C@H]2C(=O)Nc3ccccc3C(=O)N2C1,> 100 µM
5,CN1C(=O)C2CCC(=O)N2c2cccnc21 (stereo not given),> 100 µM
6,Nc1c2c(nc3ccccc13)-c1ccccc1CC2,17.5 µM
7,CC(=O)O[C@@H]1[C@H](C(C)C)[C@@H](OC(C)=O)C/C(C)=C/CC[C@]2(C)O[C@@H]12,> 100 µM
8,CCOC(=O)CSc1c(C(=O)OCC)c(=O)n(-c2ccccc2)c(=S)n1-c1ccccc1,> 100 µM

# Test system: HOP-92 NSCLC
# Test: NCI-60 cell line screen, 48 h
row,SMILES,TGI
1,CN(C)C(=O)O/N=C1/C(c2c(O)[nH]c3ccccc23)=Nc2ccccc21,33 µM
2,O=[N+]([O-])c1cccc(-c2csc(NNC3=NC/C(=C/c4ccc5c(c4)OCO5)S3)n2)c1,43.7 µM
3,CC(=O)NC(Cc1ccc(O)cc1)C(=O)O (stereo not given),> 100 µM
4,Nc1c2c(nc3ccccc13)-c1ccccc1CC2,21.9 µM
5,CC(=O)O[C@@H]1[C@H](C(C)C)[C@@H](OC(C)=O)C/C(C)=C/CC[C@]2(C)O[C@@H]12,> 100 µM
6,CCOC(=O)CSc1c(C(=O)OCC)c(=O)n(-c2ccccc2)c(=S)n1-c1ccccc1,20.6 µM

# Test system: MDA-MB-435
# Test: NCI-60 cell line screen, 48 h
row,SMILES,TGI
1,CN(C)C(=O)O/N=C1/C(c2c(O)[nH]c3ccccc23)=Nc2ccccc21,> 100 µM
2,O=[N+]([O-])c1cccc(-c2csc(NNC3=NC/C(=C/c4ccc5c(c4)OCO5)S3)n2)c1,> 100 µM
3,CC(=O)NC(Cc1ccc(O)cc1)C(=O)O (stereo not given),> 100 µM
4,COCO[C@@H]1C[C@H]2C(=O)Nc3ccccc3C(=O)N2C1,> 100 µM
5,CN1C(=O)C2CCC(=O)N2c2cccnc21 (stereo not given),> 100 µM
6,CC(=O)O[C@@H]1[C@H](C(C)C)[C@@H](OC(C)=O)C/C(C)=C/CC[C@]2(C)O[C@@H]12,> 100 µM
7,CCOC(=O)CSc1c(C(=O)OCC)c(=O)n(-c2ccccc2)c(=S)n1-c1ccccc1,> 100 µM

# Test system: RXF 393 renal
# Test: NCI-60 cell line screen, 48 h
row,SMILES,TGI
1,CN(C)C(=O)O/N=C1/C(c2c(O)[nH]c3ccccc23)=Nc2ccccc21,14.1 µM
2,O=[N+]([O-])c1cccc(-c2csc(NNC3=NC/C(=C/c4ccc5c(c4)OCO5)S3)n2)c1,47.4 µM
3,CC(=O)NC(Cc1ccc(O)cc1)C(=O)O (stereo not given),> 100 µM
4,COCO[C@@H]1C[C@H]2C(=O)Nc3ccccc3C(=O)N2C1,41.7 µM
5,CC(=O)O[C@@H]1[C@H](C(C)C)[C@@H](OC(C)=O)C/C(C)=C/CC[C@]2(C)O[C@@H]12,> 100 µM

# Test system: 786-0 renal
# Test: NCI-60 cell line screen, 48 h
row,SMILES,TGI
1,CN(C)C(=O)O/N=C1/C(c2c(O)[nH]c3ccccc23)=Nc2ccccc21,21.8 µM
2,O=[N+]([O-])c1cccc(-c2csc(NNC3=NC/C(=C/c4ccc5c(c4)OCO5)S3)n2)c1,> 100 µM
3,CC(=O)NC(Cc1ccc(O)cc1)C(=O)O (stereo not given),> 100 µM
4,COCO[C@@H]1C[C@H]2C(=O)Nc3ccccc3C(=O)N2C1,> 100 µM
5,CN1C(=O)C2CCC(=O)N2c2cccnc21 (stereo not given),> 100 µM
6,Nc1c2c(nc3ccccc13)-c1ccccc1CC2,14.1 µM
7,CC(=O)O[C@@H]1[C@H](C(C)C)[C@@H](OC(C)=O)C/C(C)=C/CC[C@]2(C)O[C@@H]12,> 100 µM
8,CCOC(=O)CSc1c(C(=O)OCC)c(=O)n(-c2ccccc2)c(=S)n1-c1ccccc1,> 100 µM

# Test system: OVCAR-8 ovarian
# Test: NCI-60 cell line screen, 48 h
row,SMILES,TGI
1,CN(C)C(=O)O/N=C1/C(c2c(O)[nH]c3ccccc23)=Nc2ccccc21,66.1 µM
2,O=[N+]([O-])c1cccc(-c2csc(NNC3=NC/C(=C/c4ccc5c(c4)OCO5)S3)n2)c1,47.2 µM
3,CC(=O)NC(Cc1ccc(O)cc1)C(=O)O (stereo not given),> 100 µM
4,COCO[C@@H]1C[C@H]2C(=O)Nc3ccccc3C(=O)N2C1,> 100 µM
5,CN1C(=O)C2CCC(=O)N2c2cccnc21 (stereo not given),> 100 µM
6,Nc1c2c(nc3ccccc13)-c1ccccc1CC2,18 µM
7,CC(=O)O[C@@H]1[C@H](C(C)C)[C@@H](OC(C)=O)C/C(C)=C/CC[C@]2(C)O[C@@H]12,> 100 µM
8,CCOC(=O)CSc1c(C(=O)OCC)c(=O)n(-c2ccccc2)c(=S)n1-c1ccccc1,> 100 µM

# Test system: MOLT-4 leukemia
# Test: NCI-60 cell line screen, 48 h
row,SMILES,TGI
1,CN(C)C(=O)O/N=C1/C(c2c(O)[nH]c3ccccc23)=Nc2ccccc21,41.5 µM
2,O=[N+]([O-])c1cccc(-c2csc(NNC3=NC/C(=C/c4ccc5c(c4)OCO5)S3)n2)c1,> 100 µM
3,CC(=O)NC(Cc1ccc(O)cc1)C(=O)O (stereo not given),> 100 µM
4,CN1C(=O)C2CCC(=O)N2c2cccnc21 (stereo not given),> 100 µM
5,Nc1c2c(nc3ccccc13)-c1ccccc1CC2,9.23 µM
6,CC(=O)O[C@@H]1[C@H](C(C)C)[C@@H](OC(C)=O)C/C(C)=C/CC[C@]2(C)O[C@@H]12,> 100 µM
7,CCOC(=O)CSc1c(C(=O)OCC)c(=O)n(-c2ccccc2)c(=S)n1-c1ccccc1,> 100 µM

# Test system: HT29 colon
# Test: NCI-60 cell line screen, 48 h
row,SMILES,TGI
1,CN(C)C(=O)O/N=C1/C(c2c(O)[nH]c3ccccc23)=Nc2ccccc21,> 100 µM
2,O=[N+]([O-])c1cccc(-c2csc(NNC3=NC/C(=C/c4ccc5c(c4)OCO5)S3)n2)c1,65.4 µM
3,CC(=O)NC(Cc1ccc(O)cc1)C(=O)O (stereo not given),> 100 µM
4,COCO[C@@H]1C[C@H]2C(=O)Nc3ccccc3C(=O)N2C1,> 100 µM
5,CN1C(=O)C2CCC(=O)N2c2cccnc21 (stereo not given),> 100 µM
6,CC(=O)O[C@@H]1[C@H](C(C)C)[C@@H](OC(C)=O)C/C(C)=C/CC[C@]2(C)O[C@@H]12,> 100 µM
7,CCOC(=O)CSc1c(C(=O)OCC)c(=O)n(-c2ccccc2)c(=S)n1-c1ccccc1,> 100 µM

# Test system: HL-60(TB) leukemia
# Test: NCI-60 cell line screen, 48 h
row,SMILES,TGI
1,CN(C)C(=O)O/N=C1/C(c2c(O)[nH]c3ccccc23)=Nc2ccccc21,> 100 µM
2,O=[N+]([O-])c1cccc(-c2csc(NNC3=NC/C(=C/c4ccc5c(c4)OCO5)S3)n2)c1,> 100 µM
3,CC(=O)NC(Cc1ccc(O)cc1)C(=O)O (stereo not given),> 100 µM
4,CN1C(=O)C2CCC(=O)N2c2cccnc21 (stereo not given),> 100 µM
5,Nc1c2c(nc3ccccc13)-c1ccccc1CC2,14.5 µM
6,CC(=O)O[C@@H]1[C@H](C(C)C)[C@@H](OC(C)=O)C/C(C)=C/CC[C@]2(C)O[C@@H]12,> 100 µM
7,CCOC(=O)CSc1c(C(=O)OCC)c(=O)n(-c2ccccc2)c(=S)n1-c1ccccc1,47.4 µM
